# Experimental data: patent publication US20230134859A1, “METHOD FOR SCREENING FOR, METHOD FOR PRODUCING, AND METHOD FOR DESIGNING DRUG ACTIVE INGREDIENTS” (SKY PHARMA CO., LTD., priority 2020, published 2023)
# Experiments:
# [1] = tested on: sox1α, sox2, sox3, and her6; assay: Test Example 1: quantitative PCR of neural stem cell markers in brains of treated zebrafish; type: in vivo; conditions: brain of treated zebrafish individuals; ΔΔCt; vs control
# Experimental: Moreover, the brains of the treated zebrafish individuals were dissected and washed with sterile distilled water, and then crushed by pipetting or 1 ml syringe suction discharge with 18 G to 24 G needles in 500 μl of Sepasol-RNA I Super G (Nacalai Tesque). A deproteinization operation was conducted once by equivalent phenol/chloroform treatment and once by chloroform treatment, and the supernatant was subjected to RNA purification using an RNA purification column (RNeasy Plus Mini Kit, Qiagen). The elute was reverse-transcribed using a mixed primer of random hexamer and oligo-dT (ReverTra Ace qPCR Kit, TOYOBO) at 37° C. for 15 minutes and 98° C. for 5 minutes, and quantitative PCR of expression levels of sox1α, sox2, sox3, and her6, which are markers of neural stem cells, was performed. Quantitative PCR was performed with SYBER Green Realtime PCR Master Mix (TOYOBO). For the PCR reaction, ABI PRISM 7700 or LightCycler from Roche Diagnostics K.K. was used. Quantification was performed in 3 wells per identical sample (n=3). The obtained data was comparatively quantified by a ΔΔCt method using a normalizer (β-actin, GAPDH, 18S, or the like). In order to confirm that the quantitative reaction was reliable, it was confirmed that the amplification product was in a band by agarose electrophoresis.
# cardiomyocytes = assay: Test Example 8: enhancement of myocardium in zebrafish embryo (nkx2.5 in situ hybridization, blood cells pumped per heartbeat); type: in vivo; conditions: test compounds = Compounds 1 to 7
# Experimental: Zebrafish embryos at 10 hours after fertilization were held with the dorsal side of the head up on a coffin (plastic plate with V-shaped grooves for holding), and a glass capillary was inserted into a midline between head and ear vesicles (heart primordium). Nitrogen gas pressure (15 picosiemens) was applied for 15 to 45 milliseconds and injected into the gap just below the neural tube. The test compound concentration was 100 μM/E3, and 0.025% (final concentration) phenol red was mixed as a tracer of the injection solution. The injection was performed in pulses with a foot pedal and continued until phenol red was distributed in an elliptical shape with a major axis of 200 μm from the insertion point. After injection, embryos were cultured at 28.5° C. for 14 hours in E3. After chorions were removed with tweezers, the embryos were fixed with 4% paraformaldehyde/PBS at normal temperature for 1 hour, and in situ hybridization was performed overnight at 65° C. in the presence of a DIG probe of nk×2.5 as a cardiac muscle marker according to a conventional method. After washing, cardiomyocytes were stained by an alkali phosphatase color reaction using an anti-DIG antibody. The stained embryos were washed with PBS, embedded in 75% glycerin/PBS and localized, and then microscopically photographed with incident light. The number of tested individuals was unified with n=80 for each compound.
# In addition, the zebrafish embryos injected with the test compound by the above-described method were cultured at 28.5° C. until 48 hours after fertilization, embedded in 3% methyl cellulose/E3, and a moving image was photographed. The number of blood cells pumped in one heartbeat in time-lapse was counted n=15 and compared to Ringer injected individuals.
structure (smiles),measurement,setting,value
"CNS(=O)(=O)c1ccccc1Nc1nc(Nc2ccc(N3CCN(C)CC3)cc2OC)ncc1Cl [Compound 7, 2-[[5-Chloro-2-[2-methoxy-4-(4-methylpiperazin-1-yl)anilino]pyrimidin-4-yl]amino]-N-methylbenzenesulfonamide]","expression levels of sox1α, sox2, sox3, and her6 (quantitative PCR)",[1],significant increase in expression levels
same,"amount of cardiomyocytes (in situ hybridization, nkx2.5)","cardiomyocytes; 100 μM injected at heart primordium 10 h after fertilization, vs control, n=80",increase in the amount of cardiomyocytes was observed
same,stroke volume of blood cells (moving image of the heartbeat),"cardiomyocytes; 100 μM, 48 h after fertilization",remarkably improved
same,number of blood cells pumped in one heartbeat,"cardiomyocytes; 100 μM, 48 h after fertilization, vs control, n=15",remarkable increase in the number of blood cells pumped in one heartbeat
